The values below come from patent EP4772505A1, “COMPOUND FOR DEGRADING ANDROGEN RECEPTOR AND MEDICAL USE THEREOF” (Ubix Therapeutics, Inc., priority 2023, dated 2025).

This data set can be described thus: Plasma and tumor tissue concentrations following oral administration in VCaP xenograft model (HPLC/MS/MS). The format is in vivo, mice. The note with it: mouse, 10 mg/kg orally once daily for 3 days. The protocol: The plasma and tumor tissue concentrations of the drug administered orally to a xenograft model using VCaP cells were analyzed as follows.
[Blood collection and tumor tissue extraction] The prepared drug was administered orally at a dose of 10 mg/kg once daily at the same time for 3 days. The mice were sacrificed 2, 6, and 24 hours after the last administration. Blood collection and tumor tissue extraction were performed immediately after sacrifice at each hour. Blood collected from the heart was placed in a K2EDTA tube for 30 minutes and then centrifuged at 15,000 rpm at 4°C for 10 minutes. The supernatant plasma was separated and stored at -20°C for analysis. The extracted tumor tissue was washed in PBS, cut into pieces of approximately 10 mg, and stored at -80°C for analysis.
[Sample Preparation] Cancer tissue was homogenized once at 5,500 rpm for 20 seconds after adding distilled water 9 times the tissue weight using a tissue homogenizer (Precellys Evolution, Bertin Technology). For cancer tissue, 20 µL of the homogenate was mixed with 20 µL of blank plasma sample, 20 µL of internal standard (carbamazepine, 30 ng/mL in acetonitrile), and 140 µL of acetonitrile. For plasma, 20 µL of the plasma sample was mixed with 20 µL of blank liver tissue sample, 20 µL of internal standard, and 140 µL of acetonitrile. Afterwards, the mixed sample was suspended for 10 minutes using a vortex mixer and centrifuged at 13,500 rpm for 10 minutes at room temperature. 140 µL of the supernatant was collected and transferred to an analysis container.
[Sample Analysis] Drug concentrations in cancer tissue and plasma samples were quantified using an HPLC/MS/MS system. 5 µL of the sample prepared in the analytical vessel was injected into the HPLC/MS/MS system for analysis. For drug quantification, a combination of 0.1% formic acid in distilled water and 0.1% formic acid in acetonitrile was used as the mobile phase. The analytical column used was a reverse-phase C18 column, and chromatograms were analyzed using isocratic elution. Ion detection was performed in ESI positive MRM mode, and peak integration was performed using Analyst software version 1.6.4 (Applied Biosystems/MDS SCIEX). Drug concentrations in cancer tissue were calculated by multiplying the concentrations obtained from the analysis of cancer tissue homogenate by a dilution factor of 10.

Where two headings read alike, the source gives them in different places.

For `N#Cc1ccc(N2CCC(C(=O)Nc3ccc(OC4CCN(CC5CCN(c6ccc(N[C@H]7CCC(=O)NC7=O)cc6F)CC5)CC4)cn3)CC2)cc1C(F)(F)F` [Example 2, (S)-1-(4-cyano-3-(trifluoromethyl)phenyl)-N-(5-((1-((1-(4-((2,6-dioxopiperidin-3-yl)amino)-2-fluorophenyl)piperidin-4-yl)methyl)piperidin-4-yl)oxy)pyridin-2-yl)piperidine-4-carboxamide], the concentration at 2 h reads like this: (plasma, 2 hours after the last administration, read-out: Concentration in Plasma) 816 ng/mL; (tumor tissue, 2 hours after the last administration, read-out: Concentration in Tumor Tissue) 5560 ng/g. For the same molecule, the concentration at 6 h runs as follows: (plasma, 6 hours after the last administration, read-out: Concentration in Plasma) 610 ng/mL; (tumor tissue, 6 hours after the last administration, read-out: Concentration in Tumor Tissue) 6130 ng/g. Moreover, the concentration at 24 h (plasma, 24 hours after the last administration, read-out: Concentration in Plasma) was found to be 51 ng/mL and the concentration at 24 h (tumor tissue, 24 hours after the last administration, read-out: Concentration in Tumor Tissue) is 834 ng/g. Moreover, the Kp at 2 h (tumor tissue / plasma, 2 hours after the last administration, read-out: Tissue to Plasma Ratio) stood at 6.78. Besides, where the note is “tumor tissue / plasma, 6 hours after the last administration, read-out: Tissue to Plasma Ratio”, the Kp at 6 h came out at 10.1. Moreover, for the setting “tumor tissue / plasma, 24 hours after the last administration, read-out: Tissue to Plasma Ratio”, the Kp at 24 h was 16.3.
